Our source for the IC50 values is ChEMBL document CHEMBL1131663, “Terphenyl cyclooxygenase-2 (COX-2) inhibitors: optimization of the central ring and o-biphenyl analogs” (Bioorg Med Chem Lett, 1999).

Assay [1] addresses T1, Prostaglandin G/H synthase 1 (Ovis aries, UniProt P05979).
T1 sequence (P05979 whole entry): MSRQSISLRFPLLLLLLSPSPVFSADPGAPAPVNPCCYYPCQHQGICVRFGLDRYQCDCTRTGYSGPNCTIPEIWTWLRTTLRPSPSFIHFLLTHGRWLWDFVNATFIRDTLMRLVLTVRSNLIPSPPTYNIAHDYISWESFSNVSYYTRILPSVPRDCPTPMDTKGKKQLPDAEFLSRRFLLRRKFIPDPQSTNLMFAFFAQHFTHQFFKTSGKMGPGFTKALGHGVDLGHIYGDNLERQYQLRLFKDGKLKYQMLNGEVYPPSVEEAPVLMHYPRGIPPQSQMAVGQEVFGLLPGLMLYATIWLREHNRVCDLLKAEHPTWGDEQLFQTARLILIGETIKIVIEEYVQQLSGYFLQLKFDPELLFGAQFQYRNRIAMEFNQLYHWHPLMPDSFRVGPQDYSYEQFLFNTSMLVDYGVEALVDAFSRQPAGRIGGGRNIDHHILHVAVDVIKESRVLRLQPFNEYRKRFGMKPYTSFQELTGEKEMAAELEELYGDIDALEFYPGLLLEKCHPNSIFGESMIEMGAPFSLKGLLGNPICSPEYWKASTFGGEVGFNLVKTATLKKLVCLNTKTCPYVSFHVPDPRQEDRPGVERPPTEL
Briefly: In vitro inhibitory concentration against ovine COX-1.

Assay [2] addresses T2, Prostaglandin G/H synthase 2 (Homo sapiens, UniProt P35354).
T2 sequence (P35354 whole entry): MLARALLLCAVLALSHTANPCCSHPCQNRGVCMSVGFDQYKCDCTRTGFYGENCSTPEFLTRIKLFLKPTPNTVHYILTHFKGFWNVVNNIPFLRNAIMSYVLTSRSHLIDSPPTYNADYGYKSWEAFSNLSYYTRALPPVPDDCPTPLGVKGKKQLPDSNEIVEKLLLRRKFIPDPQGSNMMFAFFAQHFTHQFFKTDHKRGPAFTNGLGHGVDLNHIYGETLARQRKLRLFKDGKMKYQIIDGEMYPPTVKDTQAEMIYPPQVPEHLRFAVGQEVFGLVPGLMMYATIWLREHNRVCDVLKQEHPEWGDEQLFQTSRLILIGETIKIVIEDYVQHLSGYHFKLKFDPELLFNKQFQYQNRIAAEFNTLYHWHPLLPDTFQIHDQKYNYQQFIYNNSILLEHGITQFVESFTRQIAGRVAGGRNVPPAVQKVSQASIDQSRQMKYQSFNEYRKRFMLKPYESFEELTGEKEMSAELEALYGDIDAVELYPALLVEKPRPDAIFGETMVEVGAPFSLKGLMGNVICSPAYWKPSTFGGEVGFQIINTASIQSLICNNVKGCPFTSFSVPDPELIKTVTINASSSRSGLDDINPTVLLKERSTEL
Description: In vitro inhibitory concentration against recombinant human Prostaglandin G/H synthase 2 obtained from baculovirus.

As a reminder, the IC50 is the concentration that gives 50% inhibition. Regarding `CS(=O)(=O)c1ccc(-c2ccc([N+](=O)[O-])cc2-c2ccccc2)cc1`, the IC50 in assay [1] is over 100 µM; in assay [2] it was 44 µM. `CS(=O)(=O)c1ccc(-c2cccnc2-c2ccccc2)cc1` gave an IC50 in assay [1] of over 1000 µM. Take `CS(=O)(=O)c1ccc(-c2ccccc2-c2ccc3ccccc3n2)cc1`: the IC50 in assay [1] is over 1000 µM; in assay [2] it was 57 µM. On the same counts, the results for `CS(=O)(=O)c1ccc(-c2cc(C(=O)O)ccc2-c2ccccc2)cc1` are 232 µM and over 300 µM.

Consider `CN1CC=C(c2ccccc2-c2ccc(S(C)(=O)=O)cc2)CC1`, for which the IC50 in assay [1] and in assay [2] was over 300 µM in each case. Turning to `CS(=O)(=O)c1ccc(-c2ccccc2-c2cccnc2)cc1`, the values for the IC50 in assay [1] and in assay [2] were over 300 µM and 87 µM, respectively. On the same counts, the results for `COc1ccc2cc(-c3ccccc3-c3ccc(S(C)(=O)=O)cc3)ccc2c1` are over 1000 µM and 30 µM.

Turning to `CS(=O)(=O)c1ccc(-c2ncccc2-c2ccccc2)cc1`, the IC50 in assay [1] and in assay [2] was over 300 µM each time.

For the compound `CS(=O)(=O)c1ccc(-c2ccccc2N2CCCCC2)cc1`, the IC50 in assay [1] is 43 µM; in assay [2] it was 14 µM. For `CS(=O)(=O)c1ccc(-c2ccccc2-c2ccncc2)cc1`, the IC50 in assay [1] and in assay [2] was over 300 µM each time.

With `CS(=O)(=O)c1ccc(-c2cc3ccccc3cc2-c2ccccc2)cc1`, the IC50 in assay [1] was over 300 µM; in assay [2], 41 µM. For `CS(=O)(=O)c1ccc(-c2ccccc2C2=CCCCC2)cc1` the same measures were over 1000 µM and 33 µM. In the case of `CS(=O)(=O)c1ccc(-c2nccnc2-c2ccccc2)cc1`, the IC50 in assay [1] and in assay [2] was over 300 µM in each case. Regarding `CS(=O)(=O)c1ccc(-c2cc(O)ccc2-c2ccccc2)cc1`, the IC50 turned out to be 404 µM in assay [1] and 147 µM in assay [2]. `CS(=O)(=O)c1ccc(-c2ccccc2Oc2ccccc2)cc1`: the IC50 in assay [1] was over 1000 µM; in assay [2], 33 µM.

As for `CS(=O)(=O)c1ccc(-c2ccccc2-c2ccccc2)cc1`, in assay [1], the IC50 is over 1000 µM.

In the case of `CS(=O)(=O)c1ccc(-c2ccc(N)cc2-c2ccccc2)cc1`, the figures for the IC50 in assay [1] and in assay [2] were 17 µM and 254 µM, respectively. On the same counts, the results for `CS(=O)(=O)c1ccc(-c2ccccc2C2CCCCC2)cc1` are over 1000 µM and 31 µM. Consider `CS(=O)(=O)c1ccc(-c2ccccc2Cc2ccccc2)cc1`, for which the IC50 in assay [1] and in assay [2] was over 300 µM in each case. Consider `COC(=O)c1ccc(-c2ccccc2)c(-c2ccc(S(C)(=O)=O)cc2)c1`, for which the figures for the IC50 in assay [1] and in assay [2] were over 300 µM and 48 µM, respectively. As to `CS(=O)(=O)c1ccc(-c2ccccc2-c2ccccn2)cc1`, the 50% inhibitory concentration (IC50) in assay [1] and in assay [2] was over 300 µM each time. For `CS(=O)(=O)c1ccc(-c2cc(N)ccc2-c2ccccc2)cc1`, the IC50 in assay [1] came out at 35 µM; in assay [2] it was 194 µM. On the same counts, the results for `CS(=O)(=O)c1ccc(-c2ccccc2-c2cncnc2)cc1` are over 300 µM and over 300 µM. As for `CS(=O)(=O)c1ccc(-c2cc([N+](=O)[O-])ccc2-c2ccccc2)cc1`, the IC50 was over 300 µM in assay [1] and 38 µM in assay [2].
